{"source": "patent US10611797B2", "about": "“Peptide having anticancer activity, and pharmaceutical composition and dietary supplement composition for preventing and treating cancer, both of which contain same as active ingredient” (IUCF-HYU (INDUSTRY-UNIVERSITY COOPERATION FOUNDATION …, priority 2015, dated 2020)", "molecules": {"B1": {"name": "alpha-globin promoter CP2c site probe (dsDNA)", "DNA 1": "GATCCCAAGTTTTACTCGGTAGAGCAAGCACAAACCAGG", "DNA 2": "CCTGGTTTGTGCTTGCTCTACCGAGTAAAACTTGGGATC"}}, "key": {"[1]": {"system": "cancer cell lines (HepG2, Hep3B, 293T, MCF-7, MDA-MB-231, K562, HEL, HL60, U251, U373MG, U87MG)", "experiment": "Microscopic observation of growth inhibition and apoptosis, cancer cell lines", "type": "cell-based, human", "details": "2 μM, 48 h", "description": "(§1) Liver cancer cell lines (HepG2, Hep3B), a human embryonic kidney cell line (293T), breast cancer cell lines (MCF-7, MDA-MB-231), blood tumor cell lines (K562, HEL, HL60), glioblastoma cell lines (U251, U373MG, U87MG), a mammary epithelial cell line (MCF10A), a lung epithelial cell line (BEAS2B), human mesenchymal stem cells (hMSCs), and mouse primary T cells (resting and activated T cells) were inoculated into 96-well plates at a density of 3,000 cells/well, supplemented with 50 μl of culture solution, and cultured at 37° C. and 5% CO2 for 1 h. […] After completion of the culture, cells were observed under an inverted phase contrast microscope and their morphological changes were imaged."}, "[2]": {"system": "liver cancer cell lines (HepG2, Hep3B)", "experiment": "MTT cell viability, liver cancer cell lines", "type": "cell-based, human", "details": "0-10 μM, 24-96 h", "description": "(§2) Liver cancer cell lines (HepG2, Hep3B) were inoculated into 96-well plates at a density of 3000 cells/well, and then 50 μl of culture solution was added thereto. Cells were cultured at 37° C. and 5% CO2 for 1 h. […] Cells were cultured at 37° C. and 5% CO2 for 24, 48, 72, and 96 h. After completion of the culture, the remaining culture solution was removed from the well plates, the cultures were diluted with MTT solution (3-(4,5-dimethylthiazol-2-yl)-2,5-diphenyltetrazole bromide) to a final density of 500 μg/ml, and cells were cultured at 37° C. and 5% CO2 for 3 h. The remaining MTT solution was removed and 150 μl of dimethyl sulfoxide (DMSO) was added. The reaction was carried out at room temperature for 20 min. After completion of the reaction, absorbance was measured using a microplate reader."}, "[3]": {"system": "breast cancer cell lines (MCF7, MDA-MB-231)", "experiment": "MTT cell viability, breast cancer cell lines", "type": "cell-based, human", "details": "0-10 μM, 24-96 h", "description": "as §2"}, "[4]": {"system": "glioblastoma cell lines (U251, U87MG, U343)", "experiment": "MTT cell viability, glioblastoma cell lines", "type": "cell-based, human", "details": "0-10 μM, 24-96 h", "description": "as §2"}, "[5]": {"system": "human blood cancer cell lines (K562, HEL, HL60)", "experiment": "MTT cell viability, human blood cancer cell lines", "type": "cell-based", "details": "0-10 μM, 24-96 h", "description": "as §2"}, "[6]": {"system": "human embryonic kidney cancer cell line (293T)", "experiment": "MTT cell viability, 293T", "type": "cell-based", "details": "0-10 μM, 24-96 h", "description": "as §2"}, "CP2c [7]": {"system": "CP2c", "experiment": "Luciferase reporter assay of CP2c transcriptional activity in 293T cells", "type": "cell-based, human", "details": "2 μM, 48 h, wild-type CP2c binding sites, compared with FQI1", "method": "293T cells were inoculated into a 12-well plate at a density of 1×10^5 cells/well. 12 h after inoculation, cells were transfected with combinations of a reporter vector (the wild-type reporter links the enhancer sequence of the GATA-1 gene including twice repeated CP2c-binding sites to the upstream of the luciferase gene and Mut 1/3, Mut 2/4, and Mut 1-4 reporters cause mutations of the CP2c binding sites present in the enhancer sequence) and various Flag-CP2c, HA-CP2b, and HA-PIAS1 expression vectors by using the effectene method. After 1-h culture, cells were treated with FQI1, Peptide 5C, and Peptide 5-2C at concentrations of 2 μM, followed by 48-h culture. Cells were harvested and lysed in 250 μl of passive cell lysis buffer (Promega) to obtain an extract. 20 μl of the cell extract and a dual-luciferase assay kit (Promega) were used to measure the activity of the labeled luciferase gene in GLOMAX (Promega) (the expression of each expression vector was confirmed by Western blotting)."}, "[8]": {"system": "normal cell lines (MCF10A, BEAS2B, hMSCs, mouse primary T cells)", "description": "as §1"}, "[9]": {"system": "BEAS2B and MCF10A normal epithelial cell lines", "description": "as §2"}, "[10]": {"system": "human embryonic stem cells (hESCs, H9)", "excerpt": "MEF cells labeled with rhodamine were often used to distinguish them from hESC-derived cells."}, "CP2c [11]": {"molecular_target": "T1, CP2c (Mus musculus, UniProt Q9ERA0)", "T1 construct": "5 μg of the nuclear extract and an [α-32p] dCTP-labeled DNA probe; endogenous in cells; host or cells: MEL (murine erythroid leukemia) cells, HMBA-differentiated, nuclear extract", "T1 sequence (Q9ERA0 1-502)": "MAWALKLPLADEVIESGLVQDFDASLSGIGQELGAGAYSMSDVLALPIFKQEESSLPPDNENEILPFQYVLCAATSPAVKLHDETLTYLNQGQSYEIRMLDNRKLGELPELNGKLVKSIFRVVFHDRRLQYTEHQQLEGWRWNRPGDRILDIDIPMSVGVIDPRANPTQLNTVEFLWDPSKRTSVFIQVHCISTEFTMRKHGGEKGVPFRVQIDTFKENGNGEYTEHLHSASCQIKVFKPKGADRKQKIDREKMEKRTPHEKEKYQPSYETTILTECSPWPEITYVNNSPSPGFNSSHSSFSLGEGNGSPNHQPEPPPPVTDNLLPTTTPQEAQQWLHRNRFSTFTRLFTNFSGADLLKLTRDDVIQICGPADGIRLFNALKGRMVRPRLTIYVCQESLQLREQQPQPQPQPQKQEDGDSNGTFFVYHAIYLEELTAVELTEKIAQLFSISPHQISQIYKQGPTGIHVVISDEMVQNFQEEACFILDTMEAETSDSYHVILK", "experiment": "DNA immunoprecipitation (DIP) assay of CP2c-DNA binding", "details": "0.2, 0.5, and 1 μg peptide; MEL nuclear extract; α-globin promoter probe", "method": "To analyze whether the five peptides identified in Example 1.1 bind to CP2c in cells to affect the ability of CP2c to bind to DNA, DNA immunoprecipitation (DIP) assay was performed as disclosed in another preceding research conducted by the present inventors (Kim et al., A DNA immunoprecipitation assay used in quantitative detection of in vitro DNA-protein complex binding, Analytical Biochemistry. 2013; 441: 147-151).\nIn summary, the differentiation of a murine erythroid leukemia (MEL) cell line was induced by treatment with 5 mM hexamethylene bisacetamide (HMBA) and, on day 2 after differentiation, a cellular nuclear extract was separated. […]\nSubsequently, 5 μg of the nuclear extract and an [α-32p] dCTP-labeled DNA probe (a sequence corresponding to the common CP2c binding site present in mouse α-globin promoter and between −156 and −124 in the start codon of the α-globin gene, see the paper of Kim et al. for details of the sequence) were allowed to react with a binding buffer (4% glycerol, 10 mM Tris-HCl, 1 mM DTT, 1 mM EDTA, and 0.1% NP-40) for 15 min, and gradually increasing amounts (0.2, 0.5, and 1 μg) of the identified CP2c binding peptides (Peptide 5, Peptide 8, Peptide 13, Peptide 21, and Peptide 31) were added thereto. […] The CP2c protein was removed from the DNA probe and the remaining amount of the DNA probe was measured using a scintillation counter. […]"}, "CP2c [12]": {"molecular_target": "T1, CP2c", "details": "Kim et al., Analytical Biochemistry 2013; cited from earlier work"}, "[13]": {"system": "MDA-MB-231 cell line and MCF7 cell line", "experiment": "MTT assay of Peptide 5-2CB", "type": "cell-based, human", "from_the_text": "To support this assumption, a CP2c protein region with which Peptide 5-2C interacts and amino acids in the region directly binding to Peptide 5-2C need to be identified. Thus, an attempt was made to obtain mutant CP2c proteins in which polar amino acids present in the CP2c region binding with Peptide 5 shown in FIG. 1 were substituted with Ala and analyze the binding of the mutant CP2c proteins with Peptide 5-2C by enzyme-linked immunosorbent assay (ELISA). To facilitate this analysis, Peptide 5-2CB was synthesized in which biotin tag is bonded to the C-terminal Pro residue of Peptide 5-2C. To confirm whether Peptide 5-2CB induces cancer cell-specific growth interruption and apoptosis, like Peptide 5-2C, MTT assay was conducted on two different batches of Peptide 5-2CB in MDA-MB-231 cell line and MCF7 cell line by the same method as in Example 5.1. IC50 values were also calculated from the results of MTT assay. To obtain 19 mutant CP2c proteins in which polar amino acids present in the CP2c region binding with Peptide 5-2C were substituted with Ala, oligonucleotides having sequences encoding the corresponding mutant amino acids were synthesized and site-directed mutagenesis was carried out. The base sequences encoding the mutant CP2c genes were cloned into the pGEX4 vector and mutant GST-fusion CP2c proteins were purified using beads bound with antibody against GST-tag. […]"}, "GST-CP2c wild type": {"molecular_target": "T2, GST-CP2c wild type (UniProt Q9ERA0 Q9ERA0:1-502)", "T2 sequence": "T1 sequence (Q9ERA0 1-502)", "experiment": "pulldown; DNA-IP, values only in figure", "details": "tags: GST fusion, E. coli; label: 32P"}}, "note": "No end group written: not given here. *: point of attachment. Biotin = O=C1N[C@H]2[C@H](CS[C@H]2CCCCC(=O)*)N1"}
{"molecule": "Ac-HERRESNYPQRPCRGCRGDKGPDC-Amide (Ac-HERRESNYPQRPCRGCRGDKGPDC-NH2; ends and bridges not checked) [Peptide 5C]", "values": [{"measurement": "growth inhibition and apoptosis induction of cancer cell lines (microscopy)", "setting": "[1]", "result": "specifically inhibited the growth of the cancer cell lines and induced apoptosis"}, {"measurement": "relative viability (MTT), liver cancer cell lines, compared with FQI1", "setting": "[2]", "result": "more effectively inhibited the growth of the liver cancer cell lines and induced apoptosis than FQI1"}, {"measurement": "relative viability (MTT), breast cancer cell lines, compared with FQI1", "setting": "[3]", "result": "more effectively inhibited the growth of the breast cancer cell lines and induced apoptosis than FQI1"}, {"measurement": "relative viability (MTT), glioblastoma cell lines, compared with FQI1", "setting": "[4]", "result": "more effectively inhibited the growth of the glioblastoma cell lines and induced apoptosis than FQI1"}, {"measurement": "relative viability (MTT), K562, HEL, HL60, compared with FQI1", "setting": "[5]", "result": "slightly effectively inhibited the growth of the glioblastoma cell lines and induced apoptosis compared to FQI1"}, {"measurement": "relative viability (MTT), 293T, compared with FQI1", "setting": "[6]", "result": "inhibited the growth of the glioblastoma cell lines and induced apoptosis similarly to FQI1"}, {"measurement": "CP2c-mediated transcriptional activity (luciferase reporter)", "setting": "CP2c [7]", "result": "effectively inhibit CP2c-mediated transcriptional activity compared to FQI1"}, {"measurement": "effect on normal cell lines (microscopy)", "setting": "[8]", "result": "without substantially affecting the normal cell lines"}, {"measurement": "growth inhibition and apoptosis induction of normal control cell lines (IC50 calculation)", "setting": "[9]", "result": "inhibited cell growth and induced apoptosis, similarly to the treatment with Peptide 5C"}, {"measurement": "cytotoxicity (MTT) in hESCs", "setting": "[10]", "result": "slight cytotoxicity at high concentrations"}]}
{"molecule": "HERRESNYPQRP [Peptide 5]", "values": [{"measurement": "inhibition of CP2c-DNA binding (DIP assay)", "setting": "CP2c [11]", "result": "specifically inhibited the CP2c-DNA binding in a concentration-dependent manner"}, {"measurement": "inhibition of CP2c-DNA binding (DNA immunoprecipitation)", "setting": "CP2c [12]", "result": "inhibits CP2c-DNA binding in a concentration-dependent manner"}]}
{"molecule": "Peptide 5-2CB: biotin-tagged Lys linked to the C-terminal Cys residue of Peptide 5-2C (NYPQRPCRGDKGPDCK(Biotin); not fully specified; cysteine pairing not given here)", "values": [{"measurement": "IC50 compared with Peptide 5-2C", "setting": "[13]; 48 h", "result": "had IC50 values similar to Peptide 5-2C"}, {"measurement": "cancer cell growth interruption and apoptosis (MTT)", "setting": "[13]; two batches, increasing concentrations", "result": "induced cancer cell-specific cell growth interruption and apoptosis"}]}
{"molecule": "B1", "values": [{"measurement": "binding result", "setting": "GST-CP2c wild type", "result": "binds"}]}
